Values joined by “and” are separate entries in the source; they are usually repeats but may differ in a detail not shown here. Equal entries are not always repeated. Active and inactive are the calls of the source. The rule behind the calls is not given here. A value given as a limit tells only on which side of the number the result lay.

Experimental findings from PubChem BioAssay AID651733 (The Scripps Research Institute Molecular Screening Center, 2012) are described below.

For the assay, the target named is Perilipin-5 (Homo sapiens) + 1-acylglycerol-3-phosphate O-acyltransferase ABHD5 (Homo sapiens) (UniProt Q00G26+Q8WTS1). Description: ABHD5-PLIN5 interaction inhibitors, dose response, cell lysate, luminescence, proteins expressed in HEK293T (AID 651733).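 Note: split Gaussia princeps luciferase complementation between ABHD5 and MLDP fusion proteins.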
Perilipin-5 (Homo sapiens) + 1-acylglycerol-3-phosphate O-acyltransferase ABHD5 (Homo sapiens), sequence (Q00G26 whole entry, looked up, the tested form may be a part): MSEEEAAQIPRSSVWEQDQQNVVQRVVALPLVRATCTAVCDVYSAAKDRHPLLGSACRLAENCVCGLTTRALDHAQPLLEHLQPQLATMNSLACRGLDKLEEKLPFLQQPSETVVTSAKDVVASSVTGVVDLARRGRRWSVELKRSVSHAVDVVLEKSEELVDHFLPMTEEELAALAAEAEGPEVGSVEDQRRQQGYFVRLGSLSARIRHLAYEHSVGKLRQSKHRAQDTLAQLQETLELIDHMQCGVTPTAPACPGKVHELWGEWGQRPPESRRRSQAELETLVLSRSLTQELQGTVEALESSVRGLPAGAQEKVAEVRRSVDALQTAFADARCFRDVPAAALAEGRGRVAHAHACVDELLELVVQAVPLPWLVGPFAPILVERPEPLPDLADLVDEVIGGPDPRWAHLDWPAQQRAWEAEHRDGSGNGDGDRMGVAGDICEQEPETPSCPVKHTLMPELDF
Perilipin-5 (Homo sapiens) + 1-acylglycerol-3-phosphate O-acyltransferase ABHD5 (Homo sapiens), sequence (Q8WTS1 whole entry, looked up, the tested form may be a part): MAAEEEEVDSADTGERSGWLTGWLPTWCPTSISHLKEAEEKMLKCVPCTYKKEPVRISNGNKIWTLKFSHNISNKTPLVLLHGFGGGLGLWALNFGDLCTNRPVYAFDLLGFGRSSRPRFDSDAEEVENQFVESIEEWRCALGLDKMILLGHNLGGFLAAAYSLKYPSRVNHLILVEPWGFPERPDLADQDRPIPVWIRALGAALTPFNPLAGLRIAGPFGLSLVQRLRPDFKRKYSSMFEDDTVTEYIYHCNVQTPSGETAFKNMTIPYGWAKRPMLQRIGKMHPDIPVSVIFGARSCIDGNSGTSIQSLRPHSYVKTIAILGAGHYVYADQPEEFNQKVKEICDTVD
As for `C=CC(=O)N1c2ccccc2Sc2ccc(NC(=O)OCC)cc21`, the IC50 (as a rule, the concentration needed to halve the response being measured) was 4.84 µM. Consider `CCc1nnc(NC(=O)c2nc(S(=O)(=O)Cc3ccccc3)ncc2Cl)s1`, for which the IC50 is 5.18 µM. Under `C#CCN(C[C@@H]1[C@@H](OC(=O)NCc2ccccc2F)[C@@H](OC(=O)NCc2ccccc2F)Cn2c(=O)ccc(=O)n21)S(=O)(=O)c1ccc(C)cc1` stands 6.28 µM; under `CC(C)(C)NC(=O)C(c1ccc(C(F)(F)F)cc1)n1c(=O)c(-c2ccco2)nc2ccccc21` (centres undefined), 6.67 µM; under `COc1ccc(C(C(=O)Nc2c(C)cccc2C)n2c(=O)c(-c3ccco3)nc3ccccc32)cc1` (centres undefined), 4.29 µM. For `O=C(NCc1ccccc1)C(c1cc2ccccc2o1)n1c(=O)c(-c2ccco2)nc2ccccc21` (centres undefined) the value was 4.86 µM; for `CC(C)(C)NC(=O)C(c1ccnc2ccccc12)n1c(=O)c(-c2ccco2)nc2ccccc21` (centres undefined), 8.16 µM; for `Cc1ccc(O)c(C(=O)/C=C/c2ccc3c(c2)OCCCO3)c1`, 4.93 µM. Under `N#Cc1ccccc1OCc1cn(CC(=O)c2ccc(O)cc2)nn1` stands 5.91 µM. In the case of `COc1ccc(NC(=O)C(c2ccnc3ccccc23)n2c(=O)c(-c3ccco3)nc3ccccc32)cc1` (centres undefined), the IC50 is 7.88 µM. For `CC1CCN(S(=O)(=O)c2ccc(NC(=O)Cc3ccccc3)cc2)CC1` the value was 5.73 µM; for `Cc1ccc(/C=C/C(=O)c2cc(Br)ccc2OC(=O)c2ccco2)cc1`, 0.68 µM; for `CC(=O)Oc1c(Br)cc(N(C(C)=O)S(=O)(=O)c2ccccc2)c2ccccc12`, “inactive”. Under `O=C(NC1CCCCC1)C(c1ccnc2ccccc12)n1c(=O)c(-c2ccco2)nc2ccccc21` (centres undefined) stands 4.42 µM. Under `CCN(CC)CCNC(=O)c1ccc(NC(=O)c2cn(-c3ccccc3)nc2-c2cccs2)cc1` stands “inactive”; under `CCOC1=CC2=C(C(=O)C(Cl)=CC2=O)[C@@H]2CN(S(=O)(=O)c3ccc(C)cc3)[C@@H](c3ccccc3)[C@H]12`, 2.25 µM. For `CN(C)CCOc1ccc(/C(=C(/CCCl)c2ccccc2)c2ccccc2)cc1`, the IC50 was 1.2 µM. For `CCC(=O)Nc1cccc(C(=O)/C=C/c2ccccc2)c1` the value was 3.05 µM; for `CN1[C@@H]2CC[C@H]1CC(OC1c3ccccc3CCc3ccccc31)C2` (some centres undefined), 2.38 µM. Under `CCOC(=O)N1CCN(C(=O)C[C@@H]2C[C@@]3(C(=O)OCC)CCC=C3N(Cc3ccc(Cl)cc3Cl)C2=O)CC1` stands 7.45 µM; under `CC(=O)Oc1c(Cl)cc(N(C(C)=O)S(=O)(=O)c2ccccc2)c2ccccc12`, 7.06 µM. For `CCCCC(=O)NC(c1cccc([N+](=O)[O-])c1)c1ccc2cccnc2c1O` (centres undefined) the value was “inactive”; for `CCCCCCC=C1CCC(CN2CCCC2)C1=O` (centres undefined), 2.15 µM; for `Cc1ccc(NC(=O)CSc2nnc(-c3ccco3)c(-c3ccco3)n2)cc1`, 4.82 µM. For `CC(C)(C)NC(=O)C(c1cc2ccccc2o1)n1c(=O)c(-c2ccco2)nc2ccccc21` (centres undefined), the IC50 is 3.94 µM.

For `Cc1nc2c(o1)CCc1ccccc1C2N1CCN(C)CC1` (centres undefined), the concentration for half-maximal inhibition (IC50) was 4.44 µM. Consider `Cc1cccc(C)c1NC(=O)C(c1ccc(C(F)(F)F)cc1)n1c(=O)c(-c2ccco2)nc2ccccc21` (centres undefined), for which the IC50 was 3.73 µM. Under `Cc1ccc(C(=O)c2coc3c2C(=O)C(=O)c2ccccc2-3)cc1` stands 6.15 µM; under `CC(=O)Oc1c(Cl)c(N2CCOCC2)c(OC(C)=O)c2ccccc12`, 8.04 µM; under `C#CCN(C[C@@H]1[C@@H](OC(=O)NCCCCCC)[C@@H](OC(=O)NCCCCCC)Cn2c(=O)ccc(=O)n21)S(=O)(=O)c1ccc(C)cc1`, 6.47 µM.

Consider `COc1ccc(/C=C/C(=O)c2cc(F)ccc2OC(=O)c2ccc(OC)c(OC)c2)cc1OC`, for which the 50% inhibitory concentration (IC50) is 3.22 µM. Under `CCOC(=O)c1c(NC(C)=O)sc2c1CCC(C=O)=C2Sc1ccccc1` stands 3.1 µM; under `O=C(NCc1ccccc1)C(C1CC1)n1c(=O)c(-c2ccco2)nc2ccccc21` (centres undefined), “inactive”; under `O=C1NC(=O)N(c2ccccc2F)C(=O)/C1=C/c1ccc(Oc2ccc([N+](=O)[O-])cn2)cc1`, 7.53 µM. For `Cc1cccc(C)c1NC(=O)C(c1ccccc1)n1c(=O)c(-c2ccco2)nc2ccccc21` (centres undefined), the IC50 was 7.69 µM. Under `COC(=O)c1cc(=O)n(Cc2ccco2)c(=Nc2ccc(F)cc2)s1` stands 3.58 µM; under `CCOC(=O)c1c(C)oc2c1c(CN1CCN(CCO)CC1)c(O)c1ccccc12`, 3.58 µM; under `COc1cc2c(cc1OC)C(C)N(CCc1ccc(Cl)cc1)CC2` (centres undefined), 5.37 µM. For `COc1cc(/C=C/C(=O)c2ccc(Cl)s2)cc(OC)c1O` the value was 6.42 µM. Under `O=C1NC(=O)N(Cc2ccc(F)cc2)C(=O)/C1=C\C=C\c1ccco1` stands 2.29 µM; under `c1ccc(CCC2=NCCn3cccc32)cc1`, 8.18 µM; under `O=C(/C(=C/O)N=Nc1ccc(Cl)cc1)c1ccncc1`, 9.32 µM. With `CCOc1cc(N)c(Cl)cc1C(=O)NCC1CN(Cc2ccc(F)cc2)CCO1` (centres undefined), the IC50 is 1.93 µM. Under `COC(=O)c1ccc(Cn2cc(/C=C\[N+](=O)[O-])c3ccccc32)o1` stands “inactive”; under `O=C(Nc1ccc2c(c1)OCCO2)C(c1ccnc2ccccc12)n1c(=O)c(-c2ccco2)nc2ccccc21` (centres undefined), “inactive”. For `O=C1/C(=C/c2cccnc2)CC/C1=C\c1cccnc1` the value was 4.26 µM; for `C=C1C(=O)O[C@H]2C[C@H]1[C@@H](OC(C)=O)C/C(C)=C/CC/C(C)=C\CC[C@]2(C)O`, 1.6 µM; for `COc1ccc(NC(=O)C(c2ccc(C#N)cc2)n2c(=O)c(-c3ccco3)nc3ccccc32)cc1` (centres undefined), “inactive”. For `CSc1nnc(NC(=O)c2nc(S(=O)(=O)Cc3ccc(C)cc3)ncc2Cl)s1` the value was 3.88 µM; for `CSc1nnc(NC(=O)c2nc(S(=O)(=O)Cc3cccc(C)c3)ncc2Cl)s1`, 3.59 µM; for `CC1CN(Cc2c(O)ccc3c2oc(=O)c2ccccc23)CC(C)O1` (centres undefined), 4.77 µM.

Consider `CCN(CC)CCOc1ccc(/C(=C(\Cl)c2ccccc2)c2ccccc2)cc1`, for which the IC50 is 2.39 µM.

Regarding `Cc1cc(C)c2nc(NNC(=O)c3ccc(S(=O)(=O)N4CCCC(C)C4)cc3)sc2c1` (centres undefined), the IC50 is 1.88 µM.

As for `O=C(NCc1ccccc1)C(c1ccccc1F)n1c(=O)c(-c2ccco2)nc2ccccc21` (centres undefined), the IC50 was 4.43 µM. Under `O=C(COc1ccccc1Cl)Nc1ccc(N2CCCC2)cc1` stands > 39.9 µM (inactive).

As for `CC1=CC(C)(C)Nc2ccc(OC(=O)c3cccnc3)cc21`, the IC50 was 3.25 µM. Under `Cc1cccc(NC(=O)CSc2nnc(-c3ccco3)c(-c3ccco3)n2)c1` stands 4.25 µM; under `Cc1cccc(C)c1NC(=O)C(c1ccc(-c2ccccc2)cc1)n1c(=O)c(-c2ccco2)nc2ccccc21` (centres undefined), 2.64 µM; under `O=c1[nH]c(C2CCN(S(=O)(=O)c3ccc(F)cc3)CC2)nc2c1nnn2Cc1ccc2c(c1)OCCO2`, 8.33 µM.

On to `Cc1ccc(CC2(OCCN(C)C)CCC(C(C)(C)C)CC2)cc1` (centres undefined), for which the IC50 was 4.85 µM. For `CC1CCN(S(=O)(=O)c2ccc(NC(=O)Cc3cccs3)cc2)CC1` the value was 8.04 µM. As to `COc1ccc(NC(=O)C(c2ccccc2)n2c(=O)c(-c3ccco3)nc3ccccc32)cc1` (centres undefined), the IC50 result is “inactive”. For `O=C(Nc1ccc(Cl)cc1)/C(=C/c1cccc(O)c1)c1nc2ccccc2s1` the value was 1.71 µM; for `CCN(CC)CCOCCOC(=O)C1(c2ccccc2)CCCC1`, 2.17 µM. For `COC(=O)c1cc(=O)n(-c2ccc(F)cc2)c(=Nc2ccc(F)cc2)s1` the value was 3.34 µM; for `Oc1ccc2sc(-c3ccccc3O)c(-c3ccc(OCCN4CCCCC4)cc3)c2c1`, “inactive”.

`CCCCCNC(=O)C(c1cccc2ccccc12)n1c(=O)c(-c2ccco2)nc2ccccc21` (centres undefined): the IC50 was 4.25 µM. For `Cc1cc(C)c(C(CC(=O)c2cccs2)C(C#N)C#N)c(C)c1` (centres undefined) the value was 8.57 µM; for `Oc1c(C(c2ccccc2)N2CCCCC2)ccc2ccccc12` (centres undefined), 1.73 µM; for `O=C(NCc1ccccc1)C(c1ccc(C(F)(F)F)cc1)n1c(=O)c(-c2ccco2)nc2ccccc21` (centres undefined), 3.15 µM. As for `NC(=O)C(C(=O)/C=C/c1ccc(Cl)cc1)=C1SCCS1`, the IC50 result is “inactive”.

On to `CC(=O)Cc1cc(O)c2ccccc2c1OC(=O)c1ccccc1`, for which the concentration for half-maximal inhibition (IC50) is 5.35 µM.

Take `O=C(NC1CCCCC1)C(c1ccc(-c2ccccc2)cc1)n1c(=O)c(-c2ccco2)nc2ccccc21` (centres undefined): the IC50 was 4.1 µM.

For the compound `O=[N+]([O-])/C=C/c1cn(Cc2ccc(F)cc2)c2ccccc12`, the IC50 is 7.06 µM. In the case of `CN(C)c1ccc(Cc2cc3c(O)ccc(O)c3cc(Cc3ccc(N(C)C)cc3)c2=O)cc1`, the IC50 was 4.13 µM. With `CS(=O)(=O)c1ccc(C(=O)NCCN2C(=O)S/C(=C\c3cccnc3)C2=O)cc1[N+](=O)[O-]`, the IC50 is 4.62 µM.

`CCCCNC(=O)Nc1ccc2c(c1)N(C)C(=O)c1ccccc1S2`: the IC50 was 3.6 µM.

As to `O=C(NCc1ccccc1)C(c1ccccc1)n1c(=O)c(-c2ccco2)nc2ccccc21` (centres undefined), the IC50 is 4.77 µM.

As for `CN1CCC(=C2c3ccccc3CC(=O)c3sccc32)CC1`, the IC50 was 5.57 µM and 5.43 µM. Turning to `O=C(NC1CCCCC1)C(c1cc2ccccc2o1)n1c(=O)c(-c2ccco2)nc2ccccc21` (centres undefined), the IC50 is 3.47 µM. For `COc1ccc(NC(=O)c2cc3ccccc3cc2O)cc1` the value was “inactive”; for `CCC1(C)N=C(c2ccc3c(c2)OCO3)CC(c2ccccc2O)N1` (centres undefined), 1.93 µM; for `O=C(NC1CCCCC1)C(C1CC1)n1c(=O)c(-c2ccco2)nc2ccccc21` (centres undefined), 5.09 µM.

In the case of `CC(=O)Nc1ccc(S(=O)(=O)N2c3ccc(F)cc3CCC2C)cc1` (centres undefined), the IC50 result was “inactive”. Consider `CCN(CC)CCC(C)OC(c1ccccc1)c1ccccc1` (centres undefined), for which the half-maximal inhibitory concentration (IC50) is 3.29 µM. For `CN(C)CCOC1(Cc2ccc(F)cc2)CCC(C(C)(C)C)CC1` (centres undefined) the value was 6.65 µM. For `O=C(/C=C/c1ccccc1)CC(O)(c1ccccc1)C(F)(F)C(F)F` (centres undefined) the value was 1.1 µM; for `Cc1ccc2sc(N(CCCN(C)C)C(=O)CN3C(=O)c4ccccc4C3=O)nc2c1C`, “inactive”. Under `CCN(CCCc1ccccc1)CCCc1ccccc1` stands 2.62 µM.
